According to ChEMBL document CHEMBL1629478, “Novel alkyl- and arylcarbamate derivatives with N-benzylpiperidine and N-benzylpiperazine moieties as cholinesterases inhibitors” (Eur J Med Chem, 2010):
The source made the active and inactive calls. No cut-off for these calls is given here.

Experiments:
[1] = molecular target: Acetylcholinesterase (Electrophorus electricus) (UniProt O42275); assay: Inhibition of electric eel AChE at 100 uM preincubated for 5 mins by Ellman's method
[2] = molecular target: Cholinesterase (Equus caballus) (UniProt P81908); assay: Inhibition of horse serum BChE at 100 uM preincubated for 5 mins by Ellman's method
Sequence of Cholinesterase (Equus caballus) (P81908 whole entry): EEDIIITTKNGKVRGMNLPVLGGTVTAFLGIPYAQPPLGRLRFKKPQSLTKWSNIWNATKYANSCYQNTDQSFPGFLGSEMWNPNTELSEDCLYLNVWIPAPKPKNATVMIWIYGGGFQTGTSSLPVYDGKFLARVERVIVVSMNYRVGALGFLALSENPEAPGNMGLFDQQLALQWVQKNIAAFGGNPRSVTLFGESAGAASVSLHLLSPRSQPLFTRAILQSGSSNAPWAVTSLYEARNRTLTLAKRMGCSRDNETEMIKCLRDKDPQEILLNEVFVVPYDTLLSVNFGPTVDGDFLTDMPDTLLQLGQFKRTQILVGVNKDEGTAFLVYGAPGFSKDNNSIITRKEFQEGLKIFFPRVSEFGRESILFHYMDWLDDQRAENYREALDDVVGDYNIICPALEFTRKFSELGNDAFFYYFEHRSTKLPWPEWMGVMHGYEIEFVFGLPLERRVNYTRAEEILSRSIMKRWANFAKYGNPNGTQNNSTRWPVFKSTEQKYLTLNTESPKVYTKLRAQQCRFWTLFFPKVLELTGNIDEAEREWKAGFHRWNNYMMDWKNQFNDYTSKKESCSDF

Cholinesterase = Cholinesterase (Equus caballus, UniProt P81908)
Sequence of Cholinesterase (P81908 whole entry): as above
Description: Inhibition of horse serum BChE preincubated for 5 mins by Ellman's method

[3] = molecular target: Acetylcholinesterase (Electrophorus electricus) (UniProt O42275); assay: Non-competitive inhibition of electric eel AChE by Lineweaver-Burk plot analysis
[4] = molecular target: Cholinesterase (Equus caballus) (UniProt P81908); assay: Mixed-type inhibition of horse serum BChE by Lineweaver-Burk plot analysis

Sequence of Acetylcholinesterase (Electrophorus electricus) (O42275 24-633 limits assumed): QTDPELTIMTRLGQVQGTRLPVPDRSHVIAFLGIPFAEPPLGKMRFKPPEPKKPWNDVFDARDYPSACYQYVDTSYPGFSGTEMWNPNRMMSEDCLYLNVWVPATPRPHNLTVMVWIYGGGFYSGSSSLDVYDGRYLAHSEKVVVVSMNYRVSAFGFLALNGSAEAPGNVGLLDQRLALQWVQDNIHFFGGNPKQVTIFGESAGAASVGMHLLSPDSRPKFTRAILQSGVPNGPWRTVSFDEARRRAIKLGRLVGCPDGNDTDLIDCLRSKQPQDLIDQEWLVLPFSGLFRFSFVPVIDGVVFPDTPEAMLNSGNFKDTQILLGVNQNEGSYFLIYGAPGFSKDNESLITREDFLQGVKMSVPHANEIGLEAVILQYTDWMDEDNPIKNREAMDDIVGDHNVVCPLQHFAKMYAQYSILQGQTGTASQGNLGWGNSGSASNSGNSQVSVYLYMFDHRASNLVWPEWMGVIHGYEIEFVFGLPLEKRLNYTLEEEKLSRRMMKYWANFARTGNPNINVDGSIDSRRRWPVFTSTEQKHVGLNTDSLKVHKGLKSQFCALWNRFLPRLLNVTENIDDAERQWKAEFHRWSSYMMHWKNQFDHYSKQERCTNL

Work on `CCCCNC(=O)Oc1ccc(CC(=O)NC2CCN(Cc3ccccc3)CC2)cc1` yielded an inhibition [1] of 43.7%, an inhibition [2] of 63.4% and an IC50 (Cholinesterase) of 11.7 µM.
`Cc1ccccc1NC(=O)Oc1ccc(CC(=O)NC2CCN(Cc3ccccc3)CC2)cc1` gave an inhibition [1] of 24.7% and an inhibition [2] of 46.9%.
With `CCNC(=O)Oc1cccc(CC(=O)N2CCN(Cc3ccccc3)CC2)c1` the inhibition [1] was “inactive”, the inhibition [2] was 62.5% and the IC50 (Cholinesterase) was 55 µM.
`CCNC(=O)Oc1ccc(CC(=O)NC2CCN(Cc3ccccc3)CC2)cc1` showed an inhibition [1] of 23.4%, an inhibition [2] of 90.4% and an IC50 (Cholinesterase) of 10.7 µM.
`CN(C)C(=O)Oc1cccc(CC(=O)NC2CCN(Cc3ccccc3)CC2)c1` was tested, and the inhibition [1] was 50.5%, the inhibition [2] was 82.1% and the inhibition [3] was “Active”. The inhibition [4] was “Active” and the IC50 (Cholinesterase) was 21.9 µM.
`CCCNC(=O)Oc1ccc(CC(=O)NC2CCN(Cc3ccccc3)CC2)cc1` showed an inhibition [1] of 33.8%, an inhibition [2] of 95.1% and an IC50 (Cholinesterase) of 9.33 µM.
In the case of `CCCCNC(=O)Oc1cccc(CC(=O)N2CCN(Cc3ccccc3)CC2)c1`, the inhibition [1] is reported as “inactive”, the inhibition [2] is reported as 92.7% and the IC50 (Cholinesterase) is reported as 10 µM.
With `O=C(Cc1cccc(O)c1)N1CCN(Cc2ccccc2)CC1` the inhibition [1] was “inactive” and the inhibition [2] was 31.5%.
In the case of `CN(C)C(=O)Oc1cccc(CC(=O)N2CCN(Cc3ccccc3)CC2)c1`, the inhibition [1] is reported as “inactive”, the inhibition [2] is reported as 79% and the IC50 (Cholinesterase) is reported as 23.4 µM.
`CN(C)C(=O)Oc1ccc(CC(=O)N2CCN(Cc3ccccc3)CC2)cc1` was tested, and the inhibition [1] was “inactive” and the inhibition [2] was 32.5%.
In the case of `CCNC(=O)Oc1ccc(CC(=O)N2CCN(Cc3ccccc3)CC2)cc1`, the inhibition [1] is reported as “inactive”, the inhibition [2] is reported as 83.4% and the IC50 (Cholinesterase) is reported as 43.7 µM.
Work on `CCCCNC(=O)Oc1cccc(CC(=O)NC2CCN(Cc3ccccc3)CC2)c1` yielded an inhibition [1] of 39.9%, an inhibition [2] of 92% and an IC50 (Cholinesterase) of 5.75 µM.
`O=C(Cc1ccc(O)cc1)NC1CCN(Cc2ccccc2)CC1` showed an inhibition [1] of 15.2% and an inhibition [2] of 45.6%.
`CCCNC(=O)Oc1ccc(CC(=O)N2CCN(Cc3ccccc3)CC2)cc1` was tested, and the inhibition [1] was “inactive”, the inhibition [2] was 88.3% and the IC50 (Cholinesterase) was 32.4 µM.
With `CN(C)C(=O)Oc1ccc(CC(=O)NC2CCN(Cc3ccccc3)CC2)cc1` the inhibition [1] was 46.2%, the inhibition [2] was 89.8% and the IC50 (Cholinesterase) was 8.91 µM.
With `CCNC(=O)Oc1cccc(CC(=O)NC2CCN(Cc3ccccc3)CC2)c1` the inhibition [1] was 28.5%, the inhibition [2] was 68.6% and the IC50 (Cholinesterase) was 37.2 µM.
`CC(C)NC(=O)Oc1cccc(CC(=O)NC2CCN(Cc3ccccc3)CC2)c1` gave an inhibition [1] of 34.9%, an inhibition [2] of 72.2% and an IC50 (Cholinesterase) of 29.5 µM.
`CCCCNC(=O)Oc1ccc(CC(=O)N2CCN(Cc3ccccc3)CC2)cc1` was tested, and the inhibition [1] was “inactive”, the inhibition [2] was 83.1% and the IC50 (Cholinesterase) was 16.6 µM.
Work on `O=C(Cc1cccc(O)c1)NC1CCN(Cc2ccccc2)CC1` yielded an inhibition [1] of 38.1% and an inhibition [2] of 49.8%.
Molecule `CC(C)NC(=O)Oc1ccc(CC(=O)NC2CCN(Cc3ccccc3)CC2)cc1` has an inhibition [1] of 19.2%, an inhibition [2] of 63.1% and an IC50 (Cholinesterase) of 18.2 µM.
With `O=C(Cc1ccc(O)cc1)N1CCN(Cc2ccccc2)CC1` the inhibition [1] was “inactive” and the inhibition [2] was 45.3%.
For `CC(C)NC(=O)Oc1ccc(CC(=O)N2CCN(Cc3ccccc3)CC2)cc1`, the inhibition [1] was “inactive”, the inhibition [2] was 72.2% and the IC50 (Cholinesterase) was 52.5 µM.
In the case of `CC(C)NC(=O)Oc1cccc(CC(=O)N2CCN(Cc3ccccc3)CC2)c1`, the inhibition [1] is reported as “inactive”, the inhibition [2] is reported as 77.7% and the IC50 (Cholinesterase) is reported as 35.5 µM.
